The text below walks through data of paper PMC9706565, “Covalently Conjugated NOD2/TLR7 Agonists Are Potent and Versatile Immune Potentiators” (Journal of Medicinal Chemistry, 2022).

Common to all, as to format: cell-based
In data set [1] the test system is human PBMCs. As to the kind of experiment: Cytokine release from peripheral blood mononuclear cells. The note with it: 1 μM, 18 h.
Method: Human PBMCs from healthy and consenting donors were isolated from heparinized blood by density gradient centrifugation using Ficoll-Paque (Pharmacia, Sweden).
Peripheral blood mononuclear cells were seeded (1 × 10^6 cells/mL) in 24-well plates in 500 μL of growth medium and treated with the compounds (1 μM), lipopolysaccharide (LPS; 1 μg/mL), or the corresponding vehicle (0.1% DMSO). Cell-free supernatants were collected after 18 h of incubation (37 °C, 5% CO2) and stored at −80 °C until tested. Cytokine production was determined with BD Cytometric Bead Array human inflammatory cytokines kit (BD Bioscience) on an Attune NxT flow cytometer (Thermo Fisher Scientific, Waltham, MA). Standard curves were generated using recombinant cytokines contained in the kit. The data were analyzed using the FlowJo (Tree Star, Inc., Ashland, OR) and Prism (GraphPad, San Diego, CA) software. Statistical significance was determined with one-way ANOVA with subsequent Bonferroni’s multiple comparisons test.
Data set [2] addresses T1, TLR7 (Homo sapiens, UniProt Q9NYK1).
T1 construct: host or cells: HEK-Blue TLR7 (HEK293-derived)
T1 sequence (Q9NYK1 27-1049): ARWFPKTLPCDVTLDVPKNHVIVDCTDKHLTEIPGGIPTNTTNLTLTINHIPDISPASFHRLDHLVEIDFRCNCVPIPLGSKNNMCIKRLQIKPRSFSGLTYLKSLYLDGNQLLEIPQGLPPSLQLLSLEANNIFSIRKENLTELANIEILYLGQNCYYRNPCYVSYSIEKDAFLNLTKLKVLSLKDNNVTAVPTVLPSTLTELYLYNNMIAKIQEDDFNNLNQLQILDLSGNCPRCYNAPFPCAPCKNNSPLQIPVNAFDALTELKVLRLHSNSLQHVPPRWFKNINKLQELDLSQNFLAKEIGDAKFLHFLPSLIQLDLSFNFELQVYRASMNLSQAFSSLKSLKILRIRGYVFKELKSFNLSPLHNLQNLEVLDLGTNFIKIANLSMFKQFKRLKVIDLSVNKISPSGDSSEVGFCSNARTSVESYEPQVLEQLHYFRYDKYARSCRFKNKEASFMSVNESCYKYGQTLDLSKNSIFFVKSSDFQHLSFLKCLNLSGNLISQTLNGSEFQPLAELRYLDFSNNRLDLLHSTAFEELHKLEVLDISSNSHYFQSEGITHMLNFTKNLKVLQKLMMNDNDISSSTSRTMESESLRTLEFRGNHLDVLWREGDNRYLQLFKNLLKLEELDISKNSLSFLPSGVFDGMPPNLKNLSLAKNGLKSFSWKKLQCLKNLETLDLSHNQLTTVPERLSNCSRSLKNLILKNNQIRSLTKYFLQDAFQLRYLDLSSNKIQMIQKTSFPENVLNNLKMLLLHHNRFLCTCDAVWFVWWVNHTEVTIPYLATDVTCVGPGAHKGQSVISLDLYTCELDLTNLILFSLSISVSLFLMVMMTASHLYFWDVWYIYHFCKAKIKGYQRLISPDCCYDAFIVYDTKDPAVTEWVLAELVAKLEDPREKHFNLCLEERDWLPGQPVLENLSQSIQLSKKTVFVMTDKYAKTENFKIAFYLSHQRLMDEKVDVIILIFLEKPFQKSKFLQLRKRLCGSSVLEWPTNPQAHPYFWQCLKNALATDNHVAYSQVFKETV
As to the kind of experiment: NF-κB transcriptional activity (SEAP reporter) in HEK-Blue TLR7 cells. The source says: HEK-Blue NOD1 (Cat. code: hkb-hnod1), NOD2 (Cat. code: hkb-hnod2), and TLR7 (Cat. code: hkb-htlr7) cell lines (Invivogen, San Diego, CA) are derived from HEK293 cells by co-transfection of the hNOD1, hNOD2, or hTLR7 genes, respectively, and a nuclear factor-κB (NF-κB)-inducible secreted embryonic alkaline phosphatase (SEAP) reporter gene. Following activation of the respective receptors, the resulting NF-κB induces the production of SEAP, the levels of which can be quantified colorimetrically. […] All of the subsequent passages were cultured in medium additionally supplemented with 100 μg/mL Zeocin (Invivogen) and 30 μg/mL Blasticidin (Invivogen) for HEK-Blue NOD1 and NOD2 cells, or with 100 μg/mL Zeocin (Invivogen) and 10 μg/mL Blasticidin (Invivogen) for HEK-Blue TLR7 cells.
After 18 h of incubation (37 °C, 5% CO2), SEAP activity was determined spectrophotometrically as absorbance at 630 nm (BioTek Synergy microplate reader; Winooski, VT). EC50 values were calculated using the Prism software (version 9; GraphPad Software, CA).

Data set [3] deals with K562 cells. As to the kind of experiment: PBMC cytotoxicity against K562 cancer cells. Here is the method: K562 cells are a chronic myelogenous leukemia cell line (Cat. code: CCL-243; ATCC, Manassas, VA)[60] and MEC1 cells are a B-chronic lymphocytic leukemia cell line (Cat. code: ACC 497; DSMZ GmbH, Braunschweig, Germany).[61]
The PBMC cytotoxicity assays using K562 and MEC1 cells were performed as described previously, with some modifications.[64] PBMCs were seeded (4 × 10^5 cells/well) in duplicate in 96-well U-bottom plates and treated with the compounds (1 nM–1 μM) or vehicle (0.1% DMSO) for 18 h. […] Cells that were positive for both CFSE and Sytox blue were defined as dead K562 and MEC1 cells. The gating strategy is described in Figure S4. PBMCs alone and CFSE-labeled cancer cells alone were also treated with the compounds at the same concentrations and stained with Sytox blue to exclude any direct cytotoxicity of the compounds toward the PBMCs and cancer cells. Statistical significance was determined with one-way ANOVA with subsequent Bonferroni’s multiple comparisons test.

Structures are written as SMILES.

For the compound `CCCCOc1nc(N)c2nc(O)n(Cc3ccc(C(=O)NCCOCCNC(=O)CC[C@@H](NC(=O)[C@@H](NC(=O)CNC(=O)/C=C/c4ccc(O)c(OC)c4)C(C)C)C(=O)OCC)cc3)c2n1` [Compound 4, Ethyl N5-(2-(2-(4-((6-amino-2-butoxy-8-hydroxy-9H-purin-9-yl)methyl)benzamido)ethoxy)ethyl)-N2-((E)-3-(4-hydroxy-3-methoxyphenyl)acryloyl)glycyl-L-valyl-D-glutaminate], in data set [1], the IL12p70 secretion result was “induced secretion of IL12p70”; the “production of IL-1β, IL-6, IL-8, IL-10 and TNF” value is given as “considerably stronger effects compared to 3”. Further, the EC50 (as a rule, the midpoint of the concentration-response curve) in data set [2] (HEK-Blue TLR7 cells, 18 h, eight concentrations 1 nM to 10 μM, NA, not active) is 36 nM. For the same compound, the “fold improved TLR7 activity over 1” value in data set [2] (ratio of EC50 values in HEK-Blue TLR7 cells) turned out to be 10 fold. The “cytolytic activity of PBMCs against K562 cells” value in data set [3] (PBMCs stimulated 18 h, 1 μM, 4 h coincubation, effector:target 40:1) is recorded as “significantly enhanced”. Moreover, the “lowest concentration with significant effect on PBMC cytotoxicity” value in data set [3] (tested 1 nM-1 μM, cancer cell line not specified (K562 or MEC1, Figure S5)) was 10 nM.
